{"source": "ChEMBL document CHEMBL1201862", "about": "“PubChem BioAssay data set” (2004)", "key": {"Protein skinhead-1": {"molecular_target": "T1, Protein skinhead-1 (Caenorhabditis elegans, UniProt P34707)", "T1 sequence (P34707 whole entry)": "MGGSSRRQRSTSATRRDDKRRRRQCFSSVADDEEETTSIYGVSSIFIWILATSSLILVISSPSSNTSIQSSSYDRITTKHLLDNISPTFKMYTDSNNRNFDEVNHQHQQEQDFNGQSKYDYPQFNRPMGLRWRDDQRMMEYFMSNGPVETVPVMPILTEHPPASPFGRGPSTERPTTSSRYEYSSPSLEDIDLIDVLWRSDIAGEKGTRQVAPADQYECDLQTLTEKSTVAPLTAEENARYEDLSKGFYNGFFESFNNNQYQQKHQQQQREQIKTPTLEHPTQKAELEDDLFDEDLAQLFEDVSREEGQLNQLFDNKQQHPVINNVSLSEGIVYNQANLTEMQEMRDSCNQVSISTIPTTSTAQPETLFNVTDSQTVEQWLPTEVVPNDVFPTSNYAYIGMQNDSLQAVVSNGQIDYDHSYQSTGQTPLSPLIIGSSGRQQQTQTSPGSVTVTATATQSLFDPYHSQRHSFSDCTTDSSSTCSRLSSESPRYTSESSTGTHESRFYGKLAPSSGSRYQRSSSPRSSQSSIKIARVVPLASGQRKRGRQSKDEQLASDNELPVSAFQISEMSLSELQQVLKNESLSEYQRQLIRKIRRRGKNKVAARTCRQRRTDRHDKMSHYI", "assay_type": "functional"}, "[1]": {"assay": "NIH3T3 cell viability loss – ATP luminescence, mouse fibroblasts, counter-screen, dose response (AID 2010);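 further: cells exposed to compound for about 90 hours before reading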", "assay_type": "functional, cell-based"}, "[2]": {"assay": "Trypanosoma cruzi growth suppression in host cells – NIH3T3 host cells, beta-gal luminescence, confirmation (AID 2044);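 further: intracellular parasites grown in NIH/3T3 mouse fibroblasts as host cells; luminescent beta-galactosidase reporter signal from transgenic T. cruzi replicating inside host cells; inhibitors lower the luminescence signal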", "assay_type": "functional, cell-based"}, "[3]": {"assay": "Luminescence Cell-Based Dose Confirmation HTS to Identify Inhibitors of Platelet Dense Granule Release. [Related pubchem assays: 1663 (Primary HTS), 1678 (Summary of Project)]", "assay_type": "functional"}, "[4]": {"molecular_target": "Luciferin 4-monooxygenase (Photinus pyralis, UniProt P08659)", "sequence (P08659 whole entry)": "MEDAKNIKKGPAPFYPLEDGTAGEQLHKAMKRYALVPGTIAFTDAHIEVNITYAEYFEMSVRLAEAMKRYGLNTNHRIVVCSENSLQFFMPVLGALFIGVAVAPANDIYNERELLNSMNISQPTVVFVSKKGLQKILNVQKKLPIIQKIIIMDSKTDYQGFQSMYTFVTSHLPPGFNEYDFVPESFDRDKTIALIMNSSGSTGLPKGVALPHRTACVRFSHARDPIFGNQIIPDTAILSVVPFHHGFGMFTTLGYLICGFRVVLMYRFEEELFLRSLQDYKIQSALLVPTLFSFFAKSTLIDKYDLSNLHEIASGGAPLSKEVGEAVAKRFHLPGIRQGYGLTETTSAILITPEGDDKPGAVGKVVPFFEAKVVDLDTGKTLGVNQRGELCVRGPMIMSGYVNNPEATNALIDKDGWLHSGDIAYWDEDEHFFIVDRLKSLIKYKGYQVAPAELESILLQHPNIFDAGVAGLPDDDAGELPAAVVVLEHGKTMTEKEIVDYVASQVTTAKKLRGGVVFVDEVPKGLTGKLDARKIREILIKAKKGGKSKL", "assay": "inhibition of purified Photinus pyralis luciferase – biochemical, luminescence, dose response (AID 1891)"}, "cells [5]": {"assay": "cells", "assay_type": "functional, cell-based"}, "H9c2": {"test_system": "H9c2", "assay": "cells", "assay_type": "functional, cell-based", "conditions": "Rattus norvegicus, H9c2, Myocardium"}, "cells [6]": {"assay": "cells", "assay_type": "functional, cell-based", "remark": "listed apart in the source"}, "[7]": {"assay": "Luminescence Cell-Based Dose Response HTS to Identify Inhibitors of 5'UTR Stem-Loop Driven Prion Protein mRNA Translation in H4 Neuroglioblastoma Cells. [Related pubchem assays: 1827 (Project Summary), 1813 (Primary HTS)]", "assay_type": "functional"}, "[8]": {"assay": "alpha-synuclein stem-loop luciferase translation blockers – H4 neuroglioma cells, luminescence, confirmation (AID 1988)", "assay_type": "functional, cell-based"}, "[9]": {"assay": "luciferase reporter signal suppression in cells – H4 neuroglioma cells, luminescence, dose response (AID 1990)", "assay_type": "functional, cell-based"}, "Cytochrome P450 2C19": {"molecular_target": "Cytochrome P450 2C19 (Homo sapiens, UniProt P33261)", "sequence (P33261 whole entry)": "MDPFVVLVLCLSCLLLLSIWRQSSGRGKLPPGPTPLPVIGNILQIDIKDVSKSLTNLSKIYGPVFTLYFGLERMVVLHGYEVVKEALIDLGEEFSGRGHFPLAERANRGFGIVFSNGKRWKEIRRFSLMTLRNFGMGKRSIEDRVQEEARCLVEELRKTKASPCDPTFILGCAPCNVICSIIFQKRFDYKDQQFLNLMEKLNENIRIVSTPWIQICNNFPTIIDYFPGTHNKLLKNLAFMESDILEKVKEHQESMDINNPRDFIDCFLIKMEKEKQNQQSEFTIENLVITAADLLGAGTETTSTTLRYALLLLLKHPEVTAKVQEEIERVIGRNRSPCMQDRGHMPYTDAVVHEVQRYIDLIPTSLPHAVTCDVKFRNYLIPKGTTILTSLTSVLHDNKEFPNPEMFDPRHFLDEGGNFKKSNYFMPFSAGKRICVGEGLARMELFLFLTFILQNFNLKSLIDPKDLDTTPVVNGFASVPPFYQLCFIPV", "assay": "Cytochrome panel assay with activity outcomes. Panel member name: p450-cyp2c19 Compounds with AC50 equal or less than 10 uM are considered active", "assay_type": "functional", "conditions": "read-out: AC50"}, "[10]": {"assay": "viability of HCT116 lacking mutant beta-catenin – cell-based, human colon tumor, dose response (AID 1045);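 further: cells exposed to compound for 60 hours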", "assay_type": "functional"}, "[11]": {"assay": "viability of PTEN-deleted HCT116 cells – cell-based, HCT116 PTEN knockout, dose response (AID 1047);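 further: cells exposed to compound for 60 hours before readout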", "assay_type": "functional"}, "Paired box protein Pax-8": {"molecular_target": "Paired box protein Pax-8 (Homo sapiens, UniProt Q06710)", "sequence (Q06710 whole entry)": "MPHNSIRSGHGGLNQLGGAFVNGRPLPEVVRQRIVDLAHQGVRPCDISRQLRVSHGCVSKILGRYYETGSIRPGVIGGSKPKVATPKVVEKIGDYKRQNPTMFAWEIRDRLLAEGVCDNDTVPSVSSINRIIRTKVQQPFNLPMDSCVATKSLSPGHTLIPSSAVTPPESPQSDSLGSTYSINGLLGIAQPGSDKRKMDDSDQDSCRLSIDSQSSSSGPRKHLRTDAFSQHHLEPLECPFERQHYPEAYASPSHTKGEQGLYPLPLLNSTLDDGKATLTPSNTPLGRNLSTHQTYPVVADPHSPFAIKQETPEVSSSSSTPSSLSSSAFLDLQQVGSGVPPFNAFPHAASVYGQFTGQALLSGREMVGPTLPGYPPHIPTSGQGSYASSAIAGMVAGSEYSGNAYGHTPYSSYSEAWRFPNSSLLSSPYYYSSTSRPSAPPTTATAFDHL", "assay": "PAX8 transcriptional activity inhibition in RMG-I – RMG-I cells, luciferase, cherry-pick, dose response (AID 687027);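 further: luciferase reporter driven by Pax8 target thyroperoxidase promoter measured by SteadyGlo luminescence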", "assay_type": "functional, cell-based"}, "[12]": {"assay": "DRD fibroblast viability loss – cell-based, non-viral oncogenic, luminescence, dose response (AID 1934)", "assay_type": "functional", "conditions": "Homo sapiens"}, "BJ [13]": {"test_system": "BJ", "assay": "BJ-TERT fibroblast viability loss – cell-based, RAS-independent, luminescence, dose response (AID 1933)", "assay_type": "functional", "conditions": "Homo sapiens"}, "BJ [14]": {"test_system": "BJ", "assay": "BJ-TERT-LT-ST fibroblast viability loss – cell-based, RAS-independent, luminescence, dose response (AID 1935);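 further: BJ fibroblasts immortalized with TERT plus LT and ST oncogenes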", "assay_type": "functional", "conditions": "Homo sapiens"}, "BJ [15]": {"test_system": "BJ", "assay": "cells", "assay_type": "functional, cell-based", "conditions": "Homo sapiens"}, "[16]": {"molecular_target": "T2, RNA-binding protein pos-1 (Caenorhabditis elegans, UniProt G5EF15)", "T2 sequence (G5EF15 whole entry)": "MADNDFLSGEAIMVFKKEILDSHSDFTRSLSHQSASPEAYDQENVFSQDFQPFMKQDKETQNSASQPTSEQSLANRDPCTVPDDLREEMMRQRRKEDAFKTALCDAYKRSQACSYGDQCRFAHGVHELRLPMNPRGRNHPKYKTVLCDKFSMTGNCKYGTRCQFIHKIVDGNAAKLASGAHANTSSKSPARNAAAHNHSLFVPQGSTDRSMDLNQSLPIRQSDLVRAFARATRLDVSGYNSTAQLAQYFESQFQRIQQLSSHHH", "assay": "disruptors of C. elegans POS-1 RNA interaction – biochemical, fluorescence polarization, dose response (AID 1964);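 further: purified POS-1 fused to maltose binding protein made in E. coli; potency of compounds blocking POS-1 binding to fluorescent RNA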"}, "Cytochrome P450 2D6": {"molecular_target": "Cytochrome P450 2D6 (Homo sapiens, UniProt P10635)", "sequence (P10635 whole entry)": "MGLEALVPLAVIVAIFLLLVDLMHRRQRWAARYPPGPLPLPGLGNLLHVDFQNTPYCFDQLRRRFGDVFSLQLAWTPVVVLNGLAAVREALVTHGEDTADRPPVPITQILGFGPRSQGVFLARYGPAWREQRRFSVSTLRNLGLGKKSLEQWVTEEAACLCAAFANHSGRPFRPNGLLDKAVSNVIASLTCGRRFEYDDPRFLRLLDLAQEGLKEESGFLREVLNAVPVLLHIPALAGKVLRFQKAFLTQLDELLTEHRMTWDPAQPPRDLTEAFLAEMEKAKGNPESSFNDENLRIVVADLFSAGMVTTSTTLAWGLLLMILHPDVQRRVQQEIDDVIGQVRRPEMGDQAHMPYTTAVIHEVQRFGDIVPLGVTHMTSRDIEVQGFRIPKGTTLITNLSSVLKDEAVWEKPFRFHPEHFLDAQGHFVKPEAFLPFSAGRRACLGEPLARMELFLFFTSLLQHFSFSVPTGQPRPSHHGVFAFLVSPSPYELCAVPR"}, "[17]": {"molecular_target": "T3, Zinc finger protein mex-5 (Caenorhabditis elegans, UniProt Q9XUB2)", "T3 sequence (Q9XUB2 whole entry)": "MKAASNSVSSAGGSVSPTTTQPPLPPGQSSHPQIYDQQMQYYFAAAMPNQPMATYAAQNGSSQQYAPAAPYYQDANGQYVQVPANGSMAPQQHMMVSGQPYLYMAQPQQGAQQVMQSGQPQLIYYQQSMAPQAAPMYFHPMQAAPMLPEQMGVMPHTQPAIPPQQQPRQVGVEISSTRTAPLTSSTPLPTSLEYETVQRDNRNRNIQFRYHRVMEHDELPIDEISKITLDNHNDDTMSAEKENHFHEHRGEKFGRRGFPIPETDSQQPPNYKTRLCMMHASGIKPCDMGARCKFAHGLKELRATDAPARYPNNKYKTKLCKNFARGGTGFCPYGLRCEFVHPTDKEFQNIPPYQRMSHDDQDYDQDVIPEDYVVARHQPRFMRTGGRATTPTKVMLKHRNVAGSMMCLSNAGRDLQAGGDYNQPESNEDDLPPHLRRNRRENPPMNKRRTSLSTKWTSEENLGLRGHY", "assay": "potency of MEX-5 RNA-binding blockers – biochemical, C. elegans, fluorescence polarization, dose response (AID 1960)"}}, "note": "The source made the active and inactive calls."}
{"smiles": "Cc1ccc(-c2nc(=S)c3c(n2CCN2CCOCC2)CC(C)(C)OC3)cc1", "values": [{"measurement": "IC50", "setting": "Protein skinhead-1", "result": "> 100 µM (inactive)"}]}
{"smiles": "O=[N+]([O-])c1cc(CN2CCCC2)ccc1Sc1ccc(Cl)cc1", "values": [{"measurement": "EC50", "setting": "[1]", "result": "9.06 µM (active)"}, {"measurement": "IC50", "setting": "Protein skinhead-1", "result": "17.9 µM (active)"}, {"measurement": "EC50", "setting": "[2]", "result": "0.232 µM (active)"}]}
{"smiles": "c1ccc(-c2nc3c4ccccc4ccn3c2CN2CCCCC2)cc1", "values": [{"measurement": "EC50", "setting": "[3]", "result": "> 112 µM (not active)"}, {"measurement": "EC50", "setting": "[4]", "result": "14.8 µM (active)"}]}
{"smiles": "O=C(Nc1ccccc1F)C1CCCC1", "values": [{"measurement": "IC50", "setting": "Protein skinhead-1", "result": "> 100 µM (inactive)"}]}
{"smiles": "CCCSc1cc(NCCOC(C)=O)c([N+](=O)[O-])c2nonc12", "values": [{"measurement": "EC50", "setting": "[3]", "result": "> 112 µM (not active)"}, {"measurement": "EC50", "setting": "[4]", "result": "> 112 µM (not active)"}]}
{"smiles": "COc1cccc(/C=N/Nc2nc3ccccc3n3cnnc23)c1", "values": [{"measurement": "EC50", "setting": "cells [5]", "result": "191 µM (active)"}, {"measurement": "IC50", "setting": "H9c2", "result": "> 79 µM (inactive)"}, {"measurement": "EC50", "setting": "cells [6]", "result": "> 350 µM (not active)"}, {"measurement": "EC50", "setting": "[7]", "result": "> 120 µM (not active)"}, {"measurement": "EC50", "setting": "[8]", "result": "15.6 µM (active)"}, {"measurement": "EC50", "setting": "[9]", "result": "> 120 µM (not active)"}]}
{"smiles": "Cc1nc(C(=O)Nc2ccc(Cl)cc2Cl)nn1-c1cc(OC(C)C)c(Cl)cc1Cl", "values": [{"measurement": "EC50", "setting": "cells [5]", "result": "> 350 µM (not active)"}, {"measurement": "AC50", "setting": "Cytochrome P450 2C19", "result": "7.08 µM (inconclusive)"}, {"measurement": "EC50", "setting": "cells [6]", "result": "> 350 µM (not active)"}]}
{"smiles": "O=C1[C@@H]2Cc3c([nH]c4ccccc34)[C@@H](c3ccccc3)N2C(=O)[C@@H]2Cc3c([nH]c4ccccc34)[C@@H](c3ccccc3)N12", "values": [{"measurement": "EC50", "setting": "[10]", "result": "9.96 µM (active)"}, {"measurement": "EC50", "setting": "[11]", "result": "9.58 µM (active)"}]}
{"smiles": "Cc1ccc(/C=N/NC(=O)COc2ccccc2-c2ccccc2)cc1", "values": [{"measurement": "AC50", "setting": "Paired box protein Pax-8", "result": "0.77 µM (active)"}, {"measurement": "EC50", "setting": "[12]", "result": "0.657 µM (active)"}, {"measurement": "EC50", "setting": "BJ [13]", "result": "0.643 µM (inconclusive)"}, {"measurement": "EC50", "setting": "BJ [14]", "result": "0.435 µM (inconclusive)"}, {"measurement": "EC50", "setting": "BJ [15]", "result": "0.605 µM (inconclusive)"}]}
{"smiles": "O=C(Nc1ccc(Cl)cc1)c1cnc(-c2ccccc2)nc1-c1ccccc1", "values": [{"measurement": "AC50", "setting": "Cytochrome P450 2C19", "result": "1 µM (inconclusive)"}, {"measurement": "EC50", "setting": "[10]", "result": "6.45 µM (active)"}, {"measurement": "EC50", "setting": "[11]", "result": "7.19 µM (active)"}]}
{"smiles": "CCCNc1c(F)c(F)c2c(C)c3ccccc3nc2c1F", "values": [{"measurement": "EC50", "setting": "[16]", "result": "> 300 µM (inconclusive)"}, {"measurement": "AC50", "setting": "Cytochrome P450 2D6", "result": "25.1 µM (inconclusive)"}, {"measurement": "IC50", "setting": "Protein skinhead-1", "result": "> 100 µM (inactive)"}, {"measurement": "EC50", "setting": "[17]", "result": "1.97 µM (active)"}]}
{"smiles": "O=C(CN1CCN(S(=O)(=O)c2ccc(Br)cc2)CC1)Nc1ccc2c(c1)OCO2", "values": [{"measurement": "IC50", "setting": "Protein skinhead-1", "result": "> 100 µM (inactive)"}]}
{"smiles": "O=C(NCC1CCCO1)c1ccc(NC(=O)c2cccc(Cl)c2)cc1", "note": "(stereo not drawn)", "values": [{"measurement": "EC50", "setting": "[3]", "result": "> 112 µM (not active)"}, {"measurement": "EC50", "setting": "[4]", "result": "> 112 µM (not active)"}]}
{"smiles": "COc1ccc(CCNC(=O)CSc2nc(-c3ccc(OC)c(OC)c3)ccc2C#N)cc1", "values": [{"measurement": "EC50", "setting": "cells [5]", "result": "> 350 µM (not active)"}, {"measurement": "EC50", "setting": "cells [6]", "result": "> 350 µM (not active)"}]}
{"smiles": "COc1ccc(-c2cc(C(=O)OCC(=O)c3cccc([N+](=O)[O-])c3)c3cc(C)ccc3n2)cc1", "values": [{"measurement": "EC50", "setting": "[12]", "result": "> 150 µM (not active)"}, {"measurement": "EC50", "setting": "BJ [13]", "result": "> 150 µM (not active)"}, {"measurement": "EC50", "setting": "BJ [14]", "result": "> 150 µM (not active)"}, {"measurement": "EC50", "setting": "BJ [15]", "result": "> 150 µM (not active)"}]}
{"smiles": "Cc1ccc(C(=O)c2cc([N+](=O)[O-])ccc2N2CCOCC2)cc1", "values": [{"measurement": "EC50", "setting": "[12]", "result": "2.27 µM (active)"}, {"measurement": "EC50", "setting": "BJ [13]", "result": "5.09 µM (active)"}, {"measurement": "EC50", "setting": "BJ [14]", "result": "3.32 µM (inconclusive)"}, {"measurement": "EC50", "setting": "[7]", "result": "7.18 µM (active)"}, {"measurement": "EC50", "setting": "[8]", "result": "1.73 µM (active)"}, {"measurement": "EC50", "setting": "[9]", "result": "7.57 µM (active)"}, {"measurement": "EC50", "setting": "BJ [15]", "result": "36.1 µM (inconclusive)"}]}
